Source: patent publication US20100093675A1, “NOVEL METHOD” (BIOXELL S.P.A., priority 2006, published 2010)
“Also recorded” adds a separate entry of the source.

What was measured:
[1] = Colorimetric serum calcium level in animals of the adhesion experiment (FIG. 4); type: in vivo, mouse; settings: animals of the FIG. 3 experiment
Description: (§1) Serum calcium was measured with Calcium Dry-fast kit (Sentinel diagnostics, Milan, Italy) with minor modification over the standard method: 10 ul serum, standard solution, or water are added to 100 ul of reconstituted assay reagent in a 96 well plate and incubated 5 min before reading at 550 nm, RT. Standards are run in quadruplicate, blank (water) in duplicate, and samples in triplicate.
Blood serum was obtained from animals of the experiment described in FIG. 3 and calcium level was measured.

[2] = test system: Balb/c mice; assay: Mouse caecum abrasion model of post surgical adhesion formation; type: in vivo; settings: for total adhesions score: sacrifice day seven, vs vehicle; for adhesion score / length (mm) of caecum adherent to peritoneum, difference to vehicle groups: Compound X 200, Compound Y 30, calcitriol 0.6 ug/kg i.p. once, then orally at MTD (100, 3, 0.3 ug/kg) once a day for 4 days, day seven, Anova with Bonferroni, FIG. 3
Description: Female BALB/c mice (20 g; Charles River Breeding Laboratories) were used for all experiments. All mice were maintained under standard conditions of food and water ad libitum on a 12-hour day-night cycle according to Home Office regulations.
Adhesions were induced in mice with a protocol based on a procedure developed by Sulaiman and colleagues (Sulaiman H, Gabella G, Davis C, Mutsaers S E, Boulos P, Laurent G J, Herrick S E: Growth of nerve fibres into murine peritoneal adhesions. J Pathol 2000, 192:396-403). Briefly, mice were anesthetized with a mixture of inhaled isoflurane and oxygen, and a midline incision was made through the abdominal wall and peritoneum. A standard site (6 mm diameter and 1 mm depth), midway and 0.5 cm lateral to the midline incision on the left abdominal wall, was injured scraping 30 times with a scalpel blade. The cecum was isolated and scraped 30 times on its lateral aspect with a scalpel blade, after first irrigating with 0.9% sterile saline. The two injured surfaces were then apposed by placing two horizontal mattress sutures (8/0 Ethilon; Ethicon, Berkshire, UK) 1 cm apart. The midline incision was closed in two layers; the linea-alba with a continuous suture, and then the skin using michel suture clips (Aesculap, Tuttlingen Germany). This model was validated using leuprolide acetate, a GnRH agonist (Enantone, Takeida) injected at 1 mg/kg one week before surgery. The animals were sacrified at day 7 as usual and adhesion score reduction was evaluated.
To assess the effects of vitamin D compounds on adhesion formation, peritoneal adhesions were induced in 10 animals that were randomized to experimental groups receiving the vitamin D compound or vehicle. In the initial study, animals in the experimental group (n=5) received 0.1-ml i.p. injection of 200 ug/kg of Compound X in saline solution or vehicle (saline solution) only (n=5), at the surgery day then 4 days of daily oral administration (Compound X 100 ug/kg in miglyol or miglyol vehicle only). A second experiment was done with one group of animals (n=5) receiving 0.1-ml i.p. injection of 6 ug/kg of Compound Y in saline solution at the surgery day and then 4 days of daily oral administration (3 ug/kg in miglyol). Control animals (n=5) were similarly administered with vehicle alone (miglyol or saline solution according to the route of administration). The third experiment was designed to compare the effect of calcitriol. Briefly, 28 animals were operated and randomized four different groups: vehicle (miglyol or saline solution according to the route of administration) (n=13), Compound X i.p. […] 30 ug/kg plus three days oral administration at MTD (n=5), calcitriol i.p. […] All animals were killed at 7 days, and the adhesions were quantified in a blinded fashion. Each animal received an adhesion score based on the number, length and strength of adhesions formed. Millimetres of caecum adherent to peritoneum was also measured.

[3] = Serum calcemia after i.p. or i.p. plus oral Compound Y in CD1 mice (FIG. 5); type: in vivo, mouse; settings: different doses i.p., or i.p. plus oral for 3 days at MTD (3 ug/kg), 24 h after the last administration
Description: as §1
CD1 mice were used to test serum calcemia after different doses of Compound Y administered i.p. A second group of animals received both i.p. (different doses) and oral administration for 3 days at MTD (3 ug/kg). Serum calcemia was measured 24 h after the last administration.

[4] = test system: New Zealand White rabbits; assay: Double uterine horn (DUH) rabbit model of post-surgical adhesions; type: in vivo
Description: Animals: Twenty eight, female New Zealand White rabbits, 2.4-2.7 kg, were purchased from Irish Farms (Norco, Calif.) and quarantined for at least 2 days prior to use. Seven rabbits were randomized into four treatment groups prior to initiation of surgery. The rabbits were housed on a 12:12 light:dark cycle with food and water available ad libitum.
Double Uterine Horn Model: Rabbits were anesthetized with a mixture of 55 mg/kg ketamine hydrochloride and 5 mg/kg Rompum intramuscularly. Following preparation for sterile surgery, a midline laparotomy was performed. The uterine horns were exteriorized and traumatized by abrasion of the serosal surface with gauze until punctate bleeding developed. Ischemia of both uterine horns was induced by removal of the collateral blood supply. The remaining blood supply to the uterine horns was the ascending branches of the utero-vaginal arterial supply of the myometrium. Treated animals received 25 mL of either vehicle (lactated Ringers' solution with 0.1% Tween 20, 0.1% isopropyl alcohol), or vehicle with one of two doses of Compound Y (30 or 300 μg/kg). An additional group of animals received surgery only. The horns were then returned to their normal anatomic position and the midline sutured with 3-0 Vicryl. The animals were weighed before surgery and necropsy.
After 7 days, the rabbits were terminated and the percentage of the area of the horns adherent to various organs determined.
In addition an overall score which took into account all of the above data was given to each rabbit. The following scoring system was used:
The rabbits were scored by two independent observers that were blinded to the prior treatment of the animal. If there was disagreement as to the score to be assigned to an individual animal, the higher score was given.

[5] = test system: hairless mice; assay: Full thickness wound healing mouse model; type: in vivo; settings: daily oral 3 mg/kg, 5 days a week, 5 hairless mice per group, vs vehicle, FIG. 13
Description: One full thickness wound of 1 cm in diameter was marked using a template and the tissue was excised to the level of the panniculus carnosus using dissecting scissors and forceps. The wound healing was determined by drawing the wound margin with tracing film. The rate of wound healing is expressed as the percentage area remaining 5 hairless mice per group, daily oral treatment with 3 mg/kg of Compound Y, 5 days a week. Wound healing curve using the Boltzman equation and V50 (half time of wound healing) were calculated.

[6] = test system: C57/BL6 mice; assay: CLP (cecal ligation and puncture) mortality due to infection potentiation; type: in vivo, mouse; settings: 30 mg/kg IP on the day of surgery; ten mice per group; vs vehicle; FIG. 15
Description: CLP (cecal ligation and puncture) was performed with 23G needle and 50-70% of cecal ligation. Compound Y 30 mg/kg was administered IP on the day of surgery. The mortality was checked twice a day. Ten C57/BL6 mice per group were used.

[7] = Serum calcium levels in DUH rabbit model animals; type: in vivo; settings: both doses; prior to surgery, 24 hours after surgery and prior to necropsy; FIG. 12
Description: One ml of blood was drawn into red top tubes prior to surgery, 24 hours after surgery and prior to necropsy to allow the generation of serum to measure serum calcium levels. The blood was allowed to clot, the serum harvested by centrifugation and the serum calcium measured.

[8] = Intraperitoneal single administration, serum calcium levels; type: in vivo, mouse; settings: female BALB/c mice, single i.p., FIG. 9
[9] = test system: Human mesothelial cells (LP9); assay: tPA and PAI-1 production by ELISA in human mesothelial cells; type: cell-based; settings: different doses; supernatants at 48 h; FIG. 8
Description: Human mesothelial cells (LP9, Cornell University) were plated in a 96 well plate in the presence of different doses of Compound Y. Supernatants were harvested at 48 h and tPA and PAI-1 production was measured by ELISA. tPA/PAI-1 ratio was calculated. Statistical analysis was performed by ANOVA test.

[10] = test system: Human mesothelial cells; assay: VEGF and TGF-b production by ELISA in human mesothelial cells; type: cell-based; settings: different doses; supernatants at 48 h; FIG. 14
Description: Human mesothelial cells (Cornell Cell Repositories) were plated in a 96 well plate in the presence of different doses of Compound Y. Supernatants were harvested at 48 h and VEGF and TGF-b production was measured by ELISA. Total number of live cells were quantified by fluorimetric assay.

[11] = test system: 3T3-L1 cells; assay: Fibrin clot lysis by mouse fibroblasts 3T3-L1; type: cell-based; settings: cells incubated overnight with 10^-6 to 10^-9 M; normalized to untreated cells; FIG. 7
Description: Confluent 3T3-L1 cells were incubated overnight with the following compounds: TGF-β1 5 ng/ml, Compound Y 10^−6, 10^−7, 10^−8 and 10^−9 M. After removing the supernatants, Fibrinolysis Buffer containing 3 μM fibrinogen and 100 nM plasminogen (“BM”) was added to each well. A fibrin clot was induced by adding 20 nM thrombin. Plates were incubated at 37° C. and clot density was determined by measuring optical density at 405 nm. Results were shown as relative fibrin clot density at different timepoints normalized to untreated cells.

[12] = test system: CPSS mouse model; assay: CPSS (cecal peritoneal scraping and sewing) mouse model of post-surgical adhesion, dose response; type: in vivo; settings: 30-100-300 ug/kg i.p. at the end of surgery; sacrifice after two weeks; vs vehicle; FIG. 10
Description: Different doses of Compound Y were tested in the CPSS (cecal peritoneal scraping and sewing) mouse model of post-surgical adhesion. Animals were treated with 30-100-300 ug/kg of Compound Y in […] of sterile saline with 0.1% Tween-20, 0.1% ethanol, i.p. at the end of surgery. Animals were sacrificed after two weeks and peritoneral adhesion evaluated. Means of in situ score of the four groups were compared and percentage of reduction of the mean in situ score of treated animals compared with vehicle group was considered.

SMILES: C=C1/C(=C\C=C2/CCC[C@]3(C)C([C@@H](C)C/C=C/C(O)(CC)CC)=CC[C@@H]23)C[C@@H](O)C[C@@H]1F [Compound X, 1-alpha-fluoro-25-hydroxy-16,23E-diene-26,27-bishomo-20-epi-cholecalciferol]
- serum calcium level [1]: slightly hypercalcemic
- total adhesions score ([2]; 200 ug/kg i.p. once four hours after surgery, then oral 100 ug/kg once a day for 4 days, FIG. 1): significantly reduces
- adhesion score / length (mm) of caecum adherent to peritoneum, difference to vehicle groups [2]: statistically significant

SMILES: CC(C)(O)CCCC(CCCC(C)(C)O)[C@H]1CC[C@H]2/C(=C/C=C3C[C@@H](O)C[C@H](O)C3)CCC[C@]12C [Compound Y, 1,25-dihydroxy-21-(3-hydroxy-3-methylbutyl)-19-nor-cholecalciferol]
- serum calcemia [3]: no hypercalcemic effect
- total adhesions score ([2]; 6 ug/kg i.p. once four hours after surgery, then orally 3 ug/kg once a day for 4 days, FIG. 2): significantly reduces
- adhesion score / length (mm) of caecum adherent to peritoneum, difference to vehicle groups [2]: statistically significant
- adhesion formation (overall adhesion score) ([4]; 30 or 300 ug/kg in 25 mL at surgery, 7 days, P<0.001 for both doses compared with both controls, FIG. 11): significantly reduced
- peritoneal inflammation, weight loss or hypercalcemia at necropsy ([4]; 30 or 300 ug/kg, necropsy after 7 days): No peritoneal inflammation, weight loss or hypercalcemia were observed
- efficacy in preventing adhesion formation compared with prior studies of icodextrin ([4]; DUH rabbit model, icodextrin data from Verco et al. 2000, FIG. 16): comparable efficacy
- efficacy in preventing adhesion formation compared with prior studies of lazaroids ([4]; DUH rabbit model, lazaroid data from Rodgers et al. 1998, FIG. 17): comparable efficacy
- wound healing (percentage wound area remaining, healing curve, V50) [5]: No statistically significant difference; also recorded: does not delay wound healing
- mortality (survival curves, log rank test) [6]: no statistically significant difference
- serum calcium (signs of hypercalcemia) [7]: No signs of hypercalcemia
- serum calcemia ([8]; high dosage (300 mg/kg)): Transient hypercalcemia
- tPA/PAI-1 ratio [9]: increased
- TGF-b production [10]: does not affect
- VEGF production [10]: does not affect
- fibrin clot lysis (relative fibrin clot density, OD 405 nm) [11]: accelerates fibrin clot lysis by mouse fibroblasts in a dose dependent manner
- cecal-peritoneal adhesion formation (mean in situ score) [12]: reduces cecal-peritoneal adhesion formation in a dose dependent manner

SMILES: C=C1/C(=C\C=C2/CCC[C@]3(C)[C@@H]([C@H](C)CCCC(C)(C)O)CC[C@@H]23)C[C@@H](O)C[C@@H]1O [calcitriol, reference compound]
- adhesion score / length (mm) of caecum adherent to peritoneum, difference to vehicle groups [2]: statistically significant
- serum calcemia ([8]; 16 and 24 hours after administration): more pronounced and sustained hypercalcemia

SMILES: CCNC(=O)[C@@H]1CCCN1C(=O)[C@H](CCCNC(=N)N)NC(=O)[C@H](CC(C)C)NC(=O)[C@@H](CC(C)C)NC(=O)[C@H](Cc1ccc(O)cc1)NC(=O)[C@H](CO)NC(=O)[C@H](Cc1c[nH]c2ccccc12)NC(=O)[C@H](Cc1c[nH]cn1)NC(=O)[C@@H]1CCC(=O)N1 [leuprolide acetate, reference compound]
- total adhesion score ([2]; 1 mg/kg injected one week before surgery, sacrifice day 7, model validation, FIG. 6): statistically significant reduction
